Activity calls are given as the source filed them.
Key:
cells = assay type: functional, cell-based
[1] = target: T1, Nuclear receptor subfamily 0 group B member 1 (Homo sapiens, UniProt P51843); assay type: functional, cell-based;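 note: HEK293T cells transfected with SF-1 and DAX-1 plus StAR promoter luciferase reporter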
T1 sequence (P51843 whole entry): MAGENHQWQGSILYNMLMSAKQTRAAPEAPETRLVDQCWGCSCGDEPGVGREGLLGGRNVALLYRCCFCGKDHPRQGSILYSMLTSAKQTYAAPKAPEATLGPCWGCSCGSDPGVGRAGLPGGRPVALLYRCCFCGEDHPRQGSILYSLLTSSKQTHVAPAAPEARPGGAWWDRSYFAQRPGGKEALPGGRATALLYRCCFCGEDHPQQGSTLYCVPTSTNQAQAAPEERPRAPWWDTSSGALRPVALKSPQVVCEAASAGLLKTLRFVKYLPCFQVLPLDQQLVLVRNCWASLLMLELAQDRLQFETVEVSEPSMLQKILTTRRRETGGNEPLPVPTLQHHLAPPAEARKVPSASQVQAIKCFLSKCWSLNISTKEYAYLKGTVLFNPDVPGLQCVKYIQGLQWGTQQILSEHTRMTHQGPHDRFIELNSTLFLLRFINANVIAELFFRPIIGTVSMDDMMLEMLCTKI

Streptokinase A = target: T2, Streptokinase A (Streptococcus pyogenes serotype M1, UniProt P10520); test: viability-normalized secreted streptokinase activity reduction – plasminogen activation absorbance, OD405, dose response (AID 1914); assay type: functional, Streptococcus pyogenes M1 GAS;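 note: secreted streptokinase activity via plasminogen activation per viability signal from cell pellet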
T2 sequence (P10520 whole entry): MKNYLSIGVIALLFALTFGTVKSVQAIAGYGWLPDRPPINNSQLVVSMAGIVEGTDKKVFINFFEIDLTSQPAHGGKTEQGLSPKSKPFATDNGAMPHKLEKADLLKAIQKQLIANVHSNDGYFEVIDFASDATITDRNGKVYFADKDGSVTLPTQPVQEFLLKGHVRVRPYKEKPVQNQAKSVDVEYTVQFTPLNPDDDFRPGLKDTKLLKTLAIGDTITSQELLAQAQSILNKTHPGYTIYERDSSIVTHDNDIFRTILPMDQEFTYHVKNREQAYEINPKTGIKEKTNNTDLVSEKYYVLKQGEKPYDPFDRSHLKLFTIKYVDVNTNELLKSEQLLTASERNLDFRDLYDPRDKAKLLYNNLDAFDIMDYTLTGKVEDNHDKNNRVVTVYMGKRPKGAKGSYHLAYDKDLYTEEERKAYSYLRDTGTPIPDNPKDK

Albumin = Albumin (Bos taurus, UniProt P02769); test: Counterscreen for inhibitors of T-cell receptor (TCR)-CD3 interaction: Fluorescence-based biochemical high throughput dose response assay to identify inhibitors of T-cell receptor (TCR)-CD3 interaction using a TAMRA-labeled BSA probe.; assay type: functional
[2] = test system: Streptococcus sp. 'group A'; test: Streptococcus pyogenes SK(-)GAS viability under kanamycin – luminescence, BacTiterGlo, confirmation, counter-screen for streptokinase expression inhibitor project, dose response (AID 1900); assay type: functional, organism-based
Streptococcus = test: GAS UMAA2166 growth inhibition – luminescence, BacTiterGlo, counter-screen for streptokinase expression inhibitor project, dose response (AID 1915); assay type: functional, organism-based;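 note: potency for reduction of bacterial viability or growth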
[3] = target: T3, Fructose-bisphosphate aldolase (Mycobacterium tuberculosis, UniProt P9WQA3); test: Fluorescence-based biochemical high throughput dose response assay for inhibitors of the fructose-bisphosphate aldolase (FBA) of M. tuberculosis.; assay type: functional
T3 sequence (P9WQA3 whole entry): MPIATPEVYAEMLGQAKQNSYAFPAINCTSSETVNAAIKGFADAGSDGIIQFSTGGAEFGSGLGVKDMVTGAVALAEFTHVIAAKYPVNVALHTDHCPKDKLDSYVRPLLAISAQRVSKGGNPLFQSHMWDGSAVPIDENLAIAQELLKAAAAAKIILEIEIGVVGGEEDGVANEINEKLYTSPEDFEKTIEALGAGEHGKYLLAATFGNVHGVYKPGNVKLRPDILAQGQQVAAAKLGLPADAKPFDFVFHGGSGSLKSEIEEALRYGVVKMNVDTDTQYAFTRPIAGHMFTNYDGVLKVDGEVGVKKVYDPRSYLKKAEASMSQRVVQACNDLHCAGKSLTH

[4] = HGIII-sPLA2 enzyme inhibition potency – biochemical, QFRET, IC50, dose response (AID 743457);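 note: green fluorescence rise as the enzyme cleaves BODIPY PC-A2 in liposomes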
[5] = viability of HCT116 lacking mutant beta-catenin – cell-based, human colon tumor, dose response (AID 1045); assay type: functional;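 note: HCT116 colon tumor cells with beta catenin knocked out; cells exposed to compound for 60 hours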
[6] = viability of PTEN-deleted HCT116 cells – cell-based, HCT116 PTEN knockout, dose response (AID 1047); assay type: functional;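 note: HCT116 colon tumor cells with PTEN knocked out; cells exposed to compound for 60 hours before readout; potency for loss of cell viability measured by luminescence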
[7] = Counterscreen for inhibitors of Trypanosoma brucei methionyl tRNA synthetase (MetRS): Luminescence-based cell-based high throughput dose response assay to identify compounds that are cytotoxic to Jurkat human T lymphocyte cells.; assay type: functional
[8] = target: T4, Corticotropin-releasing factor receptor 2/Corticotropin-releasing factor-binding protein (Homo sapiens, UniProt P24387+Q13324); test: activators of CRF receptor 2 with binding protein – uHTS hits, confirmation (AID 602473); assay type: functional; settings: read-out: EC50_Mean
T4 sequence (Q13324 whole entry): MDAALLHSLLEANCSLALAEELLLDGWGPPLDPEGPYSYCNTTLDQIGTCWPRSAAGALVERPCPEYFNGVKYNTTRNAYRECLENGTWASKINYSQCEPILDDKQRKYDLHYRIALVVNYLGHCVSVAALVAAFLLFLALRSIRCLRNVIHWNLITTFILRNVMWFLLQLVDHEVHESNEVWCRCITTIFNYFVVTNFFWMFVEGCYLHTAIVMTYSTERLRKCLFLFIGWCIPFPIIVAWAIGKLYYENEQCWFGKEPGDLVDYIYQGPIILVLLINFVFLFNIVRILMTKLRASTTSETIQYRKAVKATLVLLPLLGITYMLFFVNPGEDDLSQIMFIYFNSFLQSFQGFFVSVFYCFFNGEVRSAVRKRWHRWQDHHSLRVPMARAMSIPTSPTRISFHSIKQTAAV
T4 sequence (P24387 whole entry): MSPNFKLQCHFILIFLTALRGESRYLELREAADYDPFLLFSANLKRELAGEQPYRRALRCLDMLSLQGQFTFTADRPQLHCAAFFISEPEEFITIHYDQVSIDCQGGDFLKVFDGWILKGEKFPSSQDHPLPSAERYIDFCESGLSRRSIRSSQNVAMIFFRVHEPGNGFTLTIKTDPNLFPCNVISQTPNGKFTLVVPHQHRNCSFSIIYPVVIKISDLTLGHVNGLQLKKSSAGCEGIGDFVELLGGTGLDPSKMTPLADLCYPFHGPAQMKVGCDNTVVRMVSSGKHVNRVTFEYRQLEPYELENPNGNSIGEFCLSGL

[9] = target: T4, Corticotropin-releasing factor receptor 2/Corticotropin-releasing factor-binding protein; test: Dose Response confirmation of uHTS hits for small molecule antagonists of the CRF-binding protein and CRF-R2 receptor complex.; assay type: functional; settings: read-out: IC50_Mean
Fatty acid synthase [10] = target: T5, Fatty acid synthase (Homo sapiens, UniProt P49327); test: inhibition of human FAS-TE enzyme activity – biochemical, kinetic fluorescence intensity, dose response (AID 624326); assay type: functional;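 note: rate of fluorescence rise from hydrolysis of a fluorogenic O-methyl fluorescein ester substrate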
[11] = target: T6, Methionyl-tRNA synthetase, putative (Trypanosoma brucei brucei, UniProt Q38C91); assay type: functional, Trypanosoma brucei brucei strain 927/4 GUTat10.1
T6 sequence (Q38C91 whole entry): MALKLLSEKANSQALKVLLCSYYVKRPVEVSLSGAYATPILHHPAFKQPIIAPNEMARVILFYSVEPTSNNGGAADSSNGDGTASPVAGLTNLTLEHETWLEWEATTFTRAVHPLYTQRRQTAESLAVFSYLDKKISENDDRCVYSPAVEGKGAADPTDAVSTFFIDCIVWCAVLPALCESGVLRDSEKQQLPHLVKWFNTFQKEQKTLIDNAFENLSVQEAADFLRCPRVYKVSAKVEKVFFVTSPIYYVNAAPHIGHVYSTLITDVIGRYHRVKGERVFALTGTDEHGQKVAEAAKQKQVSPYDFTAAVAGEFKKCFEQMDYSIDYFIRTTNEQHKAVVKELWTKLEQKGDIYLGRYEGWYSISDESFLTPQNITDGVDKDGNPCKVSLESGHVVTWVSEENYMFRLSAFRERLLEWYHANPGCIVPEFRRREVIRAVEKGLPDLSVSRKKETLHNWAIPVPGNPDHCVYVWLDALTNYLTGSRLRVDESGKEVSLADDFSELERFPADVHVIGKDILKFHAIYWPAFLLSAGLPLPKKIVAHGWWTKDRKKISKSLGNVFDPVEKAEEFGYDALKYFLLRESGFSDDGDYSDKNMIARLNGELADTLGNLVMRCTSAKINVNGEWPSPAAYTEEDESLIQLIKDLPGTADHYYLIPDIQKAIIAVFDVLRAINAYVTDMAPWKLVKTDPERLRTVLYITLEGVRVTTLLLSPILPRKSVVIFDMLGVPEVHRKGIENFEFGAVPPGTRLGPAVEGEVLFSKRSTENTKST

[12] = target: T6, Methionyl-tRNA synthetase, putative; assay type: functional, Trypanosoma brucei brucei strain 927/4 GUTat10.1; remark: listed apart in the source
Fatty acid synthase [13] = target: T5, Fatty acid synthase; test: inhibition of human FAS-TE enzyme activity – biochemical, endpoint fluorescence intensity, uHTS hits, dose response (AID 624327); assay type: functional;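 note: fluorescence from hydrolysis of an O-methyl fluorescein acyl ester substrate by the enzyme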
[14] = target: T7, Histone-lysine N-methyltransferase NSD2 (Homo sapiens, UniProt O96028); assay type: biochemical
T7 sequence (O96028 whole entry): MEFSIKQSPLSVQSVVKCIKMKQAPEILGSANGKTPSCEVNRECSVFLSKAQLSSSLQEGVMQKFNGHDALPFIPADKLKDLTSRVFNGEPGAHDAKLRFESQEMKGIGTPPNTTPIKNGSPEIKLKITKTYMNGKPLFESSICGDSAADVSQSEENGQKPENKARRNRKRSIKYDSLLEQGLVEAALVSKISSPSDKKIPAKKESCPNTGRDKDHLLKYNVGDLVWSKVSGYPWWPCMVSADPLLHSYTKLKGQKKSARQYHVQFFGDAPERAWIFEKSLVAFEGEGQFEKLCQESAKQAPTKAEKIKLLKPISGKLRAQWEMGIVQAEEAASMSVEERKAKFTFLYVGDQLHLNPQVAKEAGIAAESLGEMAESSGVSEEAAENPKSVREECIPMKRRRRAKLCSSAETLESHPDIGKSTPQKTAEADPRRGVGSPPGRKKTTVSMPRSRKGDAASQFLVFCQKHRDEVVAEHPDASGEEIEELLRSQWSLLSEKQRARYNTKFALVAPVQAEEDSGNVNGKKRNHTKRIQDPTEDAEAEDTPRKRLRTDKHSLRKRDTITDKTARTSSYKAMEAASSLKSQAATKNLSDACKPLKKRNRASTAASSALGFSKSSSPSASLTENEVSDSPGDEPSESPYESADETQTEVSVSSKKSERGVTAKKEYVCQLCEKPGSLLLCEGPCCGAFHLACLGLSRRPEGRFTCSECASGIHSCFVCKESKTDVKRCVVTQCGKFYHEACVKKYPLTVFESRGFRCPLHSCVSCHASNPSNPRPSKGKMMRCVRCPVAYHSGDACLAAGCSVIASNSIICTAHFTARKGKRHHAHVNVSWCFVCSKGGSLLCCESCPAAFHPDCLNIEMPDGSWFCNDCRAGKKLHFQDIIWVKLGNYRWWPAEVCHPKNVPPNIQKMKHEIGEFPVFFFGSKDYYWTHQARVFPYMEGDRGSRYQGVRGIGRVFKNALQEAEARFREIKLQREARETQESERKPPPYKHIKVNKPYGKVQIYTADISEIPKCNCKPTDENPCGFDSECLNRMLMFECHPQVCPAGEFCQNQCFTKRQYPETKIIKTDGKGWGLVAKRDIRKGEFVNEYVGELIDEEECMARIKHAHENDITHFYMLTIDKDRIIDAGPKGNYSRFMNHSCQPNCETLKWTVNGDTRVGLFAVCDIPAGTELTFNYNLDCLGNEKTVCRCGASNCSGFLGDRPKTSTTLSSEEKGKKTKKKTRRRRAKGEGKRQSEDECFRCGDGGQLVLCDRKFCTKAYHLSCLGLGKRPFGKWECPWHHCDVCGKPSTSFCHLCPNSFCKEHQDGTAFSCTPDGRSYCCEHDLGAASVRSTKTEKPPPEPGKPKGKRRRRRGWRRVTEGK

Paired box protein Pax-8 = Paired box protein Pax-8 (Homo sapiens, UniProt Q06710); test: PAX8 transcriptional activity inhibition in RMG-I – RMG-I cells, luciferase, cherry-pick, dose response (AID 687027); assay type: functional, cell-based;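 note: luciferase reporter driven by Pax8 target thyroperoxidase promoter measured by SteadyGlo luminescence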
[15] = IGROV1 cell killing – plate reader, dry powder samples, PAX8 inhibitor project, dose response (AID 743043); assay type: functional, cell-based; settings: IGROV-1
[16] = OVCAR-3 cell viability loss – plate reader, dry powder samples, PAX8 inhibitor project, dose response (AID 743044); assay type: functional, cell-based

T5 sequence (P49327 whole entry): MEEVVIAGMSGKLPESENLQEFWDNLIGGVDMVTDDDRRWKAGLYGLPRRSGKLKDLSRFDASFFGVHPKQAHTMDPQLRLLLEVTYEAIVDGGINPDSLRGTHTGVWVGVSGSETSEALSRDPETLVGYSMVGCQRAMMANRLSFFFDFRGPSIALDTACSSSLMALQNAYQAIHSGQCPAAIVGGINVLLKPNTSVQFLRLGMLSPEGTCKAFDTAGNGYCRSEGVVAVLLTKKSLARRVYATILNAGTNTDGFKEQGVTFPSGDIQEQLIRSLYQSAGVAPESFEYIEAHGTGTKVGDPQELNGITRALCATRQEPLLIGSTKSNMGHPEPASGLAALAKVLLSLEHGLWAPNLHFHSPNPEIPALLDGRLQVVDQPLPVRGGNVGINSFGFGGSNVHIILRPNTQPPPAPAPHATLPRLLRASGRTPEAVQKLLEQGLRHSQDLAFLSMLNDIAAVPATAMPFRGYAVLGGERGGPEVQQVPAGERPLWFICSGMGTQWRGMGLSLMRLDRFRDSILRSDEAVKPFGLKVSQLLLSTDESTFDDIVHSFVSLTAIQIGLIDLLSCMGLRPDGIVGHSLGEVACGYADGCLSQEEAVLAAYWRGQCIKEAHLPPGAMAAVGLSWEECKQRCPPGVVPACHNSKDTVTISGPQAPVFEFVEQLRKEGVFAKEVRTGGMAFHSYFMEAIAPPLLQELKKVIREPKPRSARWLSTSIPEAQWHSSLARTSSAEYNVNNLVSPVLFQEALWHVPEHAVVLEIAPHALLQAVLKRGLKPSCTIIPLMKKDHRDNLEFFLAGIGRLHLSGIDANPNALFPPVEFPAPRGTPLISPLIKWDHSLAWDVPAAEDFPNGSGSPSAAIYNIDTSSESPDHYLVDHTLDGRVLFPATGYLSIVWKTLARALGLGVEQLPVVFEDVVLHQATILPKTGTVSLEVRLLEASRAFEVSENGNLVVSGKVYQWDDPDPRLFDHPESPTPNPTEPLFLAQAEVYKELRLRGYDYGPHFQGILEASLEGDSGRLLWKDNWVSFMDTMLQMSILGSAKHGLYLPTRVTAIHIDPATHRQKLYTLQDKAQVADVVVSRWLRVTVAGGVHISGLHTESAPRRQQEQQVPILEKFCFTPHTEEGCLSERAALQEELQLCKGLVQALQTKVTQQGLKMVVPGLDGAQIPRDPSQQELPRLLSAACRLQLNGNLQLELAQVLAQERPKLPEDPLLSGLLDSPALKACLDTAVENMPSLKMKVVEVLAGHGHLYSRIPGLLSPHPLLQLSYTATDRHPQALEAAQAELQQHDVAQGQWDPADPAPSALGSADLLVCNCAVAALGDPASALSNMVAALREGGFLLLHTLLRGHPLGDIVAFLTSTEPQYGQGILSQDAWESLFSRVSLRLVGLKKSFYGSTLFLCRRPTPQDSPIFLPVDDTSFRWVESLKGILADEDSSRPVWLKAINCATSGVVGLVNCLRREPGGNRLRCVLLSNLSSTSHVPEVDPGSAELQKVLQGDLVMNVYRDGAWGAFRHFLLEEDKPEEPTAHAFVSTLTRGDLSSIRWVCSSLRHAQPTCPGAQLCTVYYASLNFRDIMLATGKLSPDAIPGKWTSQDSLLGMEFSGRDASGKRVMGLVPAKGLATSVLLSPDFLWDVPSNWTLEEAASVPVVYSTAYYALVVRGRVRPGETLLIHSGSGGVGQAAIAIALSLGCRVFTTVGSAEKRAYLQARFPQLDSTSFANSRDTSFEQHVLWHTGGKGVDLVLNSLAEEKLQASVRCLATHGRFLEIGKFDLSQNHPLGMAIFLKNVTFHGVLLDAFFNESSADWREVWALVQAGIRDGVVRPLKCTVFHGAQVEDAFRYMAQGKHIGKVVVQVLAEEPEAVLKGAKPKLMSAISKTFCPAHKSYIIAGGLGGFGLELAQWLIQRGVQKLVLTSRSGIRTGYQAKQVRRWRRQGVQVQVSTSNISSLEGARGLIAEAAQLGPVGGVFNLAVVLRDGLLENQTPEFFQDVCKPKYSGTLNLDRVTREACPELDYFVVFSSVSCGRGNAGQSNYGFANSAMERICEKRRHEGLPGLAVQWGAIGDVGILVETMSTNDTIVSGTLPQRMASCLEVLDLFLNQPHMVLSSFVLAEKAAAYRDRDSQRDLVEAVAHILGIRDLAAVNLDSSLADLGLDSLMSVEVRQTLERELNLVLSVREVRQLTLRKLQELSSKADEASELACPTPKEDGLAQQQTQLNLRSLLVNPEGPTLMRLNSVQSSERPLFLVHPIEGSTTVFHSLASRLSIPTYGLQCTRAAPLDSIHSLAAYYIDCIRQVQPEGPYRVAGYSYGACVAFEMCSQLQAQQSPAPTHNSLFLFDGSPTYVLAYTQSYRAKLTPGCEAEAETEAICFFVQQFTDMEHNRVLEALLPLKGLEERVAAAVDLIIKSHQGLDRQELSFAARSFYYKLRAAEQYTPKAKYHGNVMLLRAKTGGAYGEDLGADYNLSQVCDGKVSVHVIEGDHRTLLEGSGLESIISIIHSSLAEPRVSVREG
Chain of Paired box protein Pax-8 (Q06710 whole entry): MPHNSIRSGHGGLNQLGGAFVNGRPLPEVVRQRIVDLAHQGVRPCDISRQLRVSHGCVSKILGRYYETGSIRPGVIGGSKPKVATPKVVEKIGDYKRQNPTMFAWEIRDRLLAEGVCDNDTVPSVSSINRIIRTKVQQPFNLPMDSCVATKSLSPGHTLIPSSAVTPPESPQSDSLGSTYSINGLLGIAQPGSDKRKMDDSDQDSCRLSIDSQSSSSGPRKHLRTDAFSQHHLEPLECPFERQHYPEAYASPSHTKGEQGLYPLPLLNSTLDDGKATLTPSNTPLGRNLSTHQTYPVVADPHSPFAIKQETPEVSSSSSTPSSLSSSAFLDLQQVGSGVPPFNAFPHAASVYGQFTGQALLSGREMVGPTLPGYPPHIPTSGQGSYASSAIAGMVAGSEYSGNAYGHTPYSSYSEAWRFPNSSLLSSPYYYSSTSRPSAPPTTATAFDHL
Chain of Albumin (P02769 whole entry): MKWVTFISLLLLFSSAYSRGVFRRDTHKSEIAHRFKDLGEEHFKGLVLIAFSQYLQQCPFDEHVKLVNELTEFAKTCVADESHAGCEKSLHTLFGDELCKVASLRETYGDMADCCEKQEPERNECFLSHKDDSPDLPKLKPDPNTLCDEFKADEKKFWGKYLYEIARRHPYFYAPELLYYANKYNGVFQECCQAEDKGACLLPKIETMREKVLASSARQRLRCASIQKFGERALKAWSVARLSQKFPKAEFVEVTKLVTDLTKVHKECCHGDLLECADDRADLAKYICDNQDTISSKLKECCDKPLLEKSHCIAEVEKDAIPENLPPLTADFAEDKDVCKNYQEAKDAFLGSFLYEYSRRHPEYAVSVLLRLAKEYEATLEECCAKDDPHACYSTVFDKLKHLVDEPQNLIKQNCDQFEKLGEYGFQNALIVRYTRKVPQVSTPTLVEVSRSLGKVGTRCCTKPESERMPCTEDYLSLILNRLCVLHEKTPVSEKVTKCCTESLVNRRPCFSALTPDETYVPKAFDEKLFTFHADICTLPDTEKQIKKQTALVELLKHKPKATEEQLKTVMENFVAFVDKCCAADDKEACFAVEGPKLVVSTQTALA

COc1ccc(C(=O)Nc2cccc(OC)c2)cc1
IC50 (cells): > 67.6 µM (inactive)
IC50 [1]: > 67.6 µM (inactive)

CCCCCC(=O)NC(=S)NC1C2CC3CC(C2)CC1C3 (stereo unspecified)
EC50 (Streptokinase A): 11.5 µM (active)
IC50 (Albumin): > 94.1 µM (inactive)
EC50 [2]: 3.42 µM (active)
EC50 (Streptococcus): 27.9 µM (active)

N#Cc1c(-c2ccc(Br)cc2)cc(-c2cccnc2)nc1N
IC50 [3]: 1.2 µM (active)

Cc1ccc(C)c(N2CCN(S(=O)(=O)c3c(C)noc3/C=C/N(C)C)CC2)c1
IC50 [4]: > 122 µM (inactive)
EC50 [5]: 32.6 µM (active)
EC50 [6]: 26.5 µM (active)

Cc1cccnc1NC(=O)COc1ccc2c(c1)CCC2
IC50 (cells): > 67.6 µM (inactive)
IC50 [1]: > 67.6 µM (inactive)

Cc1ccc(N=C(S)NNC(=O)c2ccccc2O)c(C)c1
IC50 [4]: > 122 µM (inactive)

Cc1ccccc1NC(=O)Cn1c(C)nc2ccc(N)cc2c1=O
IC50 [3]: > 1.11 µM (active)

COCCn1c(C)cc(C(=O)COC(=O)c2ccc(Cl)c(S(N)(=O)=O)c2)c1C
IC50 (cells): > 67.5 µM (inactive)
IC50 [1]: > 67.5 µM (inactive)

O=C(C/C=N\OCc1ccc([N+](=O)[O-])cc1)Nc1ccc(Br)cc1
IC50 [7]: 83.3 µM (inactive)
EC50 [8]: > 53 µM (inactive)
IC50 [9]: > 47.1 µM (inactive)
IC50 (Fatty acid synthase [10]): 7.6 µM (active)
IC50 [11]: 1.25 µM (active)
IC50 [12]: 0.784 µM (active)
IC50 (Fatty acid synthase [13]): 10.1 µM (active)

O=C1Nc2c(Cl)cccc2C1=O
AC50 [14]: 9.86 µM (active)

C[C@H](CO)N1C[C@H](C)[C@@H](CN(C)Cc2ccccc2)Oc2ccc(NC(=O)Nc3ccc(C(F)(F)F)cc3)cc2CC1=O
AC50 (Paired box protein Pax-8): 9.3 µM (active)
AC50 [15]: 46.6 µM (active)
AC50 [16]: 51.8 µM (active)

N#C/C(=N\Nc1cc(Cl)cc(Cl)c1)c1nnc2n1CCCCC2
IC50 [7]: 83.3 µM (inactive)
IC50 [11]: 27.4 µM (inactive)
IC50 [12]: 16.6 µM (inactive)

Oc1ccccc1/C=N/c1cccc2ccccc12
IC50 [3]: > 3.33 µM (active)

From ChEMBL document CHEMBL1201862, “PubChem BioAssay data set” (2004)
